Experimental data reported in patent US9957252B2, “Metalloenzyme inhibitor compounds as fungicides” (Dow AgroSciences LLC, priority 2014, dated 2018).
Read-outs that look alike come from different tables or passages of the source.

Key:
Format in all cases: in vivo, Mycosphaerella graminicola on wheat plants (variety Yuma)
[1] = tested on: standard laboratory SEPTTR isolate (SI SEPTTR); Mycosphaerella graminicola; Anamorph: Septoria tritici; assay: Leaf blotch of wheat fungicidal activity, Type A assay (technical grade in acetone/water with Triton X-100, booth sprayer), standard laboratory isolate; conditions: Zymoseptoria tritici, 24 h, 1 Day Protectant, wheat seedlings (Yuma), read-out: Disease control, SI SEPTTR Type A Assay (50 ppm) 1DP
Procedure: (§1) Evaluation of Fungicidal Activity: Leaf Blotch of Wheat (Mycosphaerella graminicola; Anamorph: Septoria tritici; Bayer code SEPTTR):
(§2) For Type A assays, technical grades of the experimental fungicides in Table 4 below were dissolved in acetone, and then mixed with nine volumes of water containing 110 ppm Triton X-100. The fungicide solutions were applied onto wheat seedlings using an automated booth sprayer. For Type B assays, emulsifiable concentrate (EC) formulations of technical grades of experimental fungicides in Table 4 below were prepared at 10% (w/v), and then mixed with 150 volumes of 0.1% Trycol 5941. The fungicide solutions were applied onto wheat seedlings using an automated track sprayer at 200 L/ha. All sprayed plants were allowed to air dry prior to further handling.
(§3) Wheat plants (variety Yuma) were grown from seed in a greenhouse in 50% mineral soil/50% soil-less Metro mix until the first leaf was fully emerged, with 7-10 seedlings per pot. Prior to or after application of experimental fungicides, plants were inoculated either with spores of a standard laboratory SEPTTR isolate (SI SEPTTR) or with spores from a SEPTTR field isolate collected from Wellsbourne, England in 2012 (FI SEPTTR). After inoculation, the plants were kept for 3 days at 20° C. in 100% relative humidity (one day in a dark dew chamber followed by two days in a lighted dew chamber). Plants were then transferred to a 20° C. greenhouse for disease development. When disease symptoms were fully expressed on untreated plants, infection levels on treated plants were assessed on a scale of 0 to 100 percent disease severity. Percent disease control was calculated using the ratio of disease severity on treated plants relative to untreated plants.

[2] = Leaf blotch of wheat fungicidal activity, Type B assay (10% EC formulation in 0.1% Trycol 5941, track sprayer 200 L/ha), field isolate; conditions: Zymoseptoria tritici, 72 h, field isolate (Wellsbourne, England 2012), wheat seedlings (Yuma)
Procedure: as §1, §2, §3

[3] = tested on: standard laboratory SEPTTR isolate (SI SEPTTR); Mycosphaerella graminicola; Anamorph: Septoria tritici; assay: Leaf blotch of wheat fungicidal activity, Type B assay (10% EC formulation in 0.1% Trycol 5941, track sprayer 200 L/ha), standard laboratory isolate; conditions: Zymoseptoria tritici, 72 h, wheat seedlings (Yuma)
Procedure: as §1, §2, §3

[4] = 3 Day Curative, read-out: Disease control, FI SEPTTR Type B Assay (100 g/ha) 3DC
[5] = 3 Day Protectant, read-out: Disease control, FI SEPTTR Type B Assay (100 g/ha) 3DP
[6] = 3 Day Curative, read-out: Disease control, SI SEPTTR Type B Assay (100 g/ha) 3DC
[7] = 3 Day Protectant, read-out: Disease control, SI SEPTTR Type B Assay (100 g/ha) 3DP

Compound	pest or weed control at 50 ppm [1]	pest or weed control at 100 g/ha [2, 4]	pest or weed control at 100 g/ha [2, 5]	pest or weed control at 100 g/ha [3, 6]	pest or weed control at 100 g/ha [3, 7]
CC(C)(C)C(O)(c1ccc(-c2ccc(C3(C#N)CC3)cc2)cc1)c1cncnc1 (stereo not shown) [Compound 32]	80 to 100%	60 to 79%	80 to 100%	80 to 100%	80 to 100%
CC(C)(C)C(O)(c1cncnc1)c1ccc(-c2ccc(OCC(F)(F)F)cc2)cc1F (stereo not shown) [Compound 26]	80 to 100%	80 to 100%	80 to 100%	80 to 100%	80 to 100%
CC(C)(C)C(O)(c1cncnc1)c1ccc(-c2ccc(C(F)(F)F)cc2F)cc1Cl (stereo not shown) [Compound 30]	80 to 100%	80 to 100%	80 to 100%	80 to 100%	80 to 100%
CC(C)(C)C(O)(c1cncnc1)c1ccc(-c2ccc(OCC(F)(F)F)cc2)cc1Cl (stereo not shown) [Compound 25]	80 to 100%	80 to 100%	80 to 100%	80 to 100%	60 to 79%
CC(C)(C)C(O)(c1ccc(-c2cccc(OC(F)(F)F)c2)cc1)c1cncnc1 (stereo not shown) [Compound 11]	80 to 100%	60 to 79%	60 to 79%	60 to 79%	80 to 100%
CC(C)(C)C(O)(c1ccc(-c2ccc(C#N)cc2)cc1)c1cncnc1 (stereo not shown) [Compound 3]	80 to 100%	80 to 100%	60 to 79%	60 to 79%	60 to 79%
CC(C)(C)C(O)(c1ccc(-c2ccc(OC(F)F)cc2)cc1)c1cncnc1 (stereo not shown) [Compound 2]	80 to 100%	80 to 100%	80 to 100%	80 to 100%	80 to 100%
CC(C)(C)C(O)(c1ccc(-c2ccc(OCC(F)(F)F)cc2)cc1)c1cncnc1 (stereo not shown) [Compound 14]	80 to 100%	80 to 100%	60 to 79%	80 to 100%	80 to 100%
